For eleven compounds, IC50 results are on record in patent US20250163104A1, “MACROCYCLIC IMMUNOMODULATORS” (priority 2021, published 2025).

SMILES strings stand for the structures. pIC50: −log10 of the molar value. Where a SMILES comes first, the peptide text is derived from it. Bridges are numbered along the chain shown (N, C = ends). [ ]: non-standard residue; d: D form. The star is where a group is joined. Bip = N[C@@H](Cc1ccc(-c2ccccc2)cc1)C(=O)O; aIle = CC[C@@H](C)[C@H](N)C(=O)O; 4Pal = N[C@@H](Cc1ccncc1)C(=O)O; 2Thi = N[C@@H](Cc1cccs1)C(=O)O; Cha = N[C@@H](CC1CCCCC1)C(=O)O; Cit = NC(=O)NCCC[C@H](N)C(=O)O; dCha = N[C@H](CC1CCCCC1)C(=O)O; Carboxymethyl = O=C(O)C*; Nle = CCCC[C@H](N)C(=O)O; Orn = NCCC[C@H](N)C(=O)O; Dab = NCC[C@H](N)C(=O)O; Dap = NC[C@H](N)C(=O)O

The assay addresses T1, human PD-1 / PD-L1-Ig binding on Jurkat cell line over-expressing human PD-1 (Jurkat-PD-1) (Homo sapiens, UniProt Q15116).
T1 construct: expressed in transfected cells; host or cells: Jurkat
In words: Jurkat-PD-1 Cell Binding High-Content Screening Assay (CBA). To be noted: Jurkat-PD-1 cells, PE-labeled PD-L1-Ig 20 nM final; read-out: Jurkat HPD1_PDL1 IC50. Format: cell-based. In a few lines: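 Jurkat cells over-expressing human PD-1, in DMEM/10% FCS, pre-incubated with compound 2 h at 37° C. PE-labeled human PD-L1-Ig (20 nM final) added for 1 h; cells fixed in paraformaldehyde with Hoechst 33342 nuclear stain, washed, and bound fluorescence quantified by high-content imaging.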

T1 sequence (Q15116 25-288): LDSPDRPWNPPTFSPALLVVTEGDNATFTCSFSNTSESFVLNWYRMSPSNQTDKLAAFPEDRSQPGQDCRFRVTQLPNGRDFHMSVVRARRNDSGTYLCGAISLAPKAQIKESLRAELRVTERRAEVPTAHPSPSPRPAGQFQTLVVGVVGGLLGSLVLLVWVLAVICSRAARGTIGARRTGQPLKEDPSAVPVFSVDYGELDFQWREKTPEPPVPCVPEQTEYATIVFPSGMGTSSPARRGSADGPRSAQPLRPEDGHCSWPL

By pIC50 is commonly meant −log10 of the IC50, conventionally taken in molar units. For the compound `CC(C)C[C@H]1NC(=O)[C@H](CCCN)NC(=O)[C@H](CCC(=O)O)NC(=O)[C@H](Cc2ccc(-c3ccccc3)cc2)NC(=O)[C@H](C(C)C)NC(=O)[C@H](Cc2ccc(F)cc2)NC(=O)[C@H](CC(=O)O)NC(=O)[C@H](Cc2ccc(OCC(=O)O)cc2)NC(=O)[C@H](CN)NC(=O)CSC[C@@H](C(=O)N[C@@H](C)C(N)=O)NC(=O)[C@H]([C@@H](C)O)NC(=O)[C@H](C(C)C)NC(=O)[C@H](CC2CCCCC2)NC(=O)[C@H](CCN)NC1=O` [Compound 2147], the pIC50 is 7.92.
Then `CC[C@@H](C)[C@@H]1NC(=O)[C@H](Cc2ccc(-c3ccccc3)cc2)NC(=O)[C@H](C(C)C)NC(=O)[C@H](Cc2c[nH]c3ccccc23)NC(=O)[C@H](CC(=O)O)NC(=O)[C@H](Cc2ccc(OCC(=O)O)cc2)NC(=O)[C@H](Cc2ccc(OCC(=O)O)cc2)NC(=O)CSC[C@@H](C(=O)N[C@@H](C)C(N)=O)NC(=O)[C@H]([C@@H](C)O)NC(=O)[C@H](C(C)C)NC(=O)[C@H](CC2CCCCC2)NC(=O)[C@H](CCN)NC(=O)[C@@H](CC2CCCCC2)NC(=O)[C@H](CCCN)NC1=O` [Compound 1625] ({CH2CO}-Y(Carboxymethyl)Y(Carboxymethyl)DWV[Bip][aIle][Orn][dCha][Dab][Cha]VTCA-NH2; thioether N-14), with 7.46; and `CC(C)C[C@@H]1NC(=O)[C@H](CCN)NC(=O)[C@@H](CC(C)C)NC(=O)[C@H](CCCN)NC(=O)[C@H](CCCNC(N)=O)NC(=O)[C@H](Cc2ccc(-c3ccccc3)cc2)NC(=O)[C@H](C(C)C)NC(=O)[C@H](Cc2c[nH]c3ccccc23)NC(=O)[C@H](CC(=O)O)NC(=O)[C@H](Cc2ccncc2)NC(=O)[C@H](CN)NC(=O)CSC[C@@H](C(=O)N[C@@H](C)C(N)=O)NC(=O)[C@H]([C@@H](C)O)NC(=O)[C@H](C(C)C)NC1=O` [Compound 1240] ({CH2CO}-[Dap][4Pal]DWV[Bip][Cit][Orn][dL][Dab]LVTCA-NH2; thioether N-14), with 6.92.
On to `CC(C)C[C@H]1NC(=O)[C@H](CCCN)NC(=O)[C@H](CCC(=O)O)NC(=O)[C@H](Cc2ccc(-c3ccccc3)cc2)NC(=O)[C@H](C(C)C)NC(=O)[C@H](Cc2cccs2)NC(=O)[C@H](CC(=O)O)NC(=O)[C@H](Cc2ccncc2)NC(=O)[C@H](Cc2ccccc2)NC(=O)CSC[C@@H](C(=O)N[C@@H](C)C(N)=O)NC(=O)[C@H]([C@@H](C)O)NC(=O)[C@H](C(C)C)NC(=O)[C@H](CC2CCCCC2)NC(=O)[C@H](CCN)NC1=O` [Compound 2200] ({CH2CO}-F[4Pal]D[2Thi]V[Bip]E[Orn][dL][Dab][Cha]VTCA-NH2; thioether N-14), for which the pIC50 was 7.99.
On to `CC[C@H](C)[C@@H]1NC(=O)[C@H](Cc2ccc(-c3ccccc3)cc2)NC(=O)[C@H](C(C)C)NC(=O)[C@H](Cc2c[nH]c3ccccc23)NC(=O)[C@H](CC(=O)O)NC(=O)[C@H](Cc2ccc(O)cc2)NC(=O)[C@H](CN)NC(=O)CSC[C@@H](C(=O)N[C@@H](C)C(N)=O)NC(=O)[C@H]([C@@H](C)O)NC(=O)[C@H](C(C)C)NC(=O)[C@H](CC(C)C)NC(=O)[C@H](CCN)NC(=O)[C@@H](CC(C)C)NC(=O)[C@H](CCCN)NC1=O` [Compound 1056] ({CH2CO}-[Dap]YDWV[Bip]I[Orn][dL][Dab]LVTCA-NH2; thioether N-14), for which the pIC50 was 8.07.
Take `CC(C)C[C@H]1NC(=O)[C@H](CCCN)NC(=O)[C@H](CCCCN)NC(=O)[C@H](Cc2ccc(-c3ccccc3)cc2)NC(=O)[C@H](C(C)C)NC(=O)[C@H](Cc2c[nH]c3ccccc23)NC(=O)[C@H](CC(=O)O)NC(=O)[C@H](Cc2ccc(O)cc2)NC(=O)[C@H](CC(N)=O)NC(=O)CSC[C@@H](C(=O)N[C@@H](C)C(N)=O)NC(=O)[C@H]([C@@H](C)O)NC(=O)[C@H](C(C)C)NC(=O)[C@H](CC2CCCCC2)NC(=O)[C@H](CCN)NC1=O` [Compound 1381] ({CH2CO}-NYDWV[Bip]K[Orn][dL][Dab][Cha]VTCA-NH2; thioether N-14): the pIC50 is 7.88.
`CC(C)C[C@H]1NC(=O)[C@H](CCCN)NC(=O)[C@H](C(C)C)NC(=O)[C@H](Cc2ccc(-c3ccccc3)cc2)NC(=O)[C@H](C(C)C)NC(=O)[C@H](Cc2c[nH]c3ccccc23)NC(=O)[C@H](CC(=O)O)NC(=O)[C@H](Cc2ccc(OCC(=O)O)cc2)NC(=O)[C@H](CN)NC(=O)CSC[C@@H](C(=O)N[C@@H](C)C(N)=O)NC(=O)[C@H](CCCCN)NC(=O)[C@H](C(C)C)NC(=O)[C@H](CC2CCCCC2)NC(=O)[C@H](CCN)NC1=O` [Compound 1744] ({CH2CO}-[Dap]Y(Carboxymethyl)DWV[Bip]V[Orn][dL][Dab][Cha]VKCA-NH2; thioether N-14): the pIC50 is 8.33.
Regarding `CC[C@H](C)[C@@H]1NC(=O)[C@H](Cc2ccc(-c3ccccc3)cc2)NC(=O)[C@H](C(C)C)NC(=O)[C@H](Cc2c[nH]c3ccccc23)NC(=O)[C@H](CC(=O)O)NC(=O)[C@H](Cc2ccc(OCC(=O)O)cc2)NC(=O)[C@H](CN)NC(=O)CSC[C@@H](C(=O)N[C@@H](C)C(N)=O)NC(=O)[C@H]([C@@H](C)O)NC(=O)[C@H](C(C)C)NC(=O)[C@H](CC2CCCCC2)NC(=O)[C@H](CCN)NC(=O)[C@@H](CC(C)C)NC(=O)[C@H](CCCN)NC1=O` [Compound 1391], the pIC50 was 8.30.
On to `CCCC[C@@H]1NC(=O)[C@H](Cc2c[nH]c3ccccc23)NC(=O)[C@H](CC(=O)O)NC(=O)[C@H](Cc2ccc(OCC(=O)O)cc2)NC(=O)[C@H](CN)NC(=O)CSC[C@@H](C(=O)N[C@@H](C)C(N)=O)NC(=O)[C@H]([C@@H](C)O)NC(=O)[C@H](C(C)C)NC(=O)[C@H](CC2CCCCC2)NC(=O)[C@H](CCN)NC(=O)[C@@H](CC(C)C)NC(=O)[C@H](CCCN)NC(=O)[C@H](CCCNC(N)=O)NC(=O)[C@H](Cc2ccc(-c3ccccc3)cc2)NC1=O` [Compound 1358] ({CH2CO}-[Dap]Y(Carboxymethyl)DW[Nle][Bip][Cit][Orn][dL][Dab][Cha]VTCA-NH2; thioether N-14), for which the pIC50 was 8.14.
With `CCCC[C@@H]1NC(=O)[C@H](CCCNC(=N)N)NC(=O)[C@@H](CC(C)C)NC(=O)[C@H](CCCN)NC(=O)[C@H](CCCNC(N)=O)NC(=O)[C@H](Cc2ccc(-c3ccccc3)cc2)NC(=O)[C@H](C(C)C)NC(=O)[C@H](Cc2c[nH]c3ccccc23)NC(=O)[C@H](CC(=O)O)NC(=O)[C@H](Cc2ccc(O)cc2)NC(=O)[C@H](Cc2ccc(OCC(=O)O)cc2)NC(=O)CSC[C@@H](C(=O)N[C@@H](C)C(N)=O)NC(=O)[C@H]([C@@H](C)O)NC(=O)[C@H](C(C)C)NC1=O` [Compound 1176] ({CH2CO}-Y(Carboxymethyl)YDWV[Bip][Cit][Orn][dL]R[Nle]VTCA-NH2; thioether N-14), the pIC50 was 7.12.
In the case of `CC(C)[C@@H]1NC(=O)[C@H](Cc2c[nH]c3ccccc23)NC(=O)[C@H](CC(=O)O)NC(=O)[C@H](Cc2ccncc2)NC(=O)[C@H](CN)NC(=O)CSC[C@@H](C(=O)N[C@@H](C)C(N)=O)NC(=O)[C@H]([C@@H](C)O)NC(=O)[C@H](C(C)C)NC(=O)[C@H](CC2CCCCC2)NC(=O)[C@H](CCN)NC(=O)[C@@H](CC2CCCCC2)NC(=O)[C@H](CCCN)NC(=O)[C@H](CCCNC(N)=O)NC(=O)[C@H](Cc2ccc(-c3ccccc3)cc2)NC1=O` [Compound 1646] ({CH2CO}-[Dap][4Pal]DWV[Bip][Cit][Orn][dCha][Dab][Cha]VTCA-NH2; thioether N-14), the pIC50 was 7.55.
